Laboratory results taken from US20110028566A1, “COMPOSITIONS AND PRODUCTS CONTAINING CYCLOALIPHATIC DIOL ANTIMICROBIAL AGENTS AND METHODS OF USING THE COMPOSITIONS AND PRODUCTS” (EASTMAN CHEMICAL COMPANY, priority 2009, published 2011).

Assays:
Aspergillus niger = test: Microbial challenge testing in BPW; assay type: cell-based; settings: for Grade code, A. niger, 3 Day / Grade code, A. niger, 13 Day / Grade code, A. niger, 30 Day: BPW, w/v % in label, average of replicates
Protocol: (§1) The microorganisms used in challenge tests are given in Table 3, designated as either ATCC (American Type Culture Collection) or wild type. These wild type organisms were problematic organisms previously isolated from chemical products. In the description for each organism, the bacteria are indicated as either GN (Gram negative) or GP (Gram positive).
(§2) All of the microorganisms were grown in Tryptose Soy Broth (TSB), DIFCO™ available from Becton, Dickinson and Company, containing 1% dextrose. Aspergillus niger and Candida albicans were incubated at 22° C.±2° C. for at least 96 hours. All bacteria were incubated at 35° C.±2° C. in a humidified incubator for at least 96 hours.
Aspergillus niger and Candida albicans were also grown on Sabouraud dextrose agar (SDA) at 22° C.±2° C. for 7 to 14 days or until full sporulation was achieved.
(§3) The following procedure was followed to determine the amount of each challenge material (inoculum broth) required to produce a 10^8 cfu/mL challenge, which is equivalent to a final test-sample microbial concentration of 10^5 to 10^6 cfu (colony-forming units)/mL.
(§4) Using a sterile serological pipette, 1 mL of the growth from each TSB culture was transferred into tubes containing 9 mL phosphate buffer (pH 7.2) and mixed thoroughly. This process was repeated to make serial 1:10 dilutions. Then 0.1 mL of each sample and dilution was inoculated onto agar plates to produce the equivalent of a further 1:10 dilution. C. albicans and A. niger were inoculated onto SDA and bacteria were inoculated onto Plate Count Agar (PCA), DIFCO™ available from Becton, Dickinson and Company. The 0.1 mL aliquots were evenly distributed on the plates using the spread-plate technique. The spread-plate technique is performed by spreading the aliquot over the entire plate surface using a sterile spreading rod while rotating the plate with a rotary auto-plater. After the inoculum was absorbed completely, each plate was inverted and incubated (fungi at 22° C.±2° C. and bacteria at 35° C.±2° C.).
(§5) After incubation for at least 48 hours, colonies that had developed on the agar plates were counted and recorded with the corresponding dilution. If counting had to be delayed temporarily, plates were refrigerated, preferably no more than 24 hours, until they could be counted. The number of cfu/mL was determined by multiplying the count by the dilution factor for that particular plate.
(§6) Turbidity in Nepholemetric Turbidity Units (NTU) was measured for each serial dilution using the HF-Micro 100 Model Turbidimeter. For each microorganism, the plate counts were compared to the turbidity readings.
Aspergillus niger cultures were harvested and spores dislodged from the SDA on which they were grown by rubbing the growth gently with a sterile inoculating loop. The spores were then mixed into the broth culture that had been incubated with a sterile magnetic stir bar to reduce pellicle formation. The spore-culture mixture was filtered repeatedly through sterile, non-absorbent cotton and harvested repeatedly, adjusting vegetative cells and spores to a level of 1.0×10^8. A hemocytometer was used to verify the final challenge concentration.
(§7) Control substrates (“broth alone”) were prepared for each microorganism separately in triplicate by adding 13.5 mL of BPW (pH 7.0) containing 1% (w/v) dextrose to each 20-mL glass tube; then adding 1.5 mL challenge material to produce a final concentration at time zero of 10^5 to 10^6 cfu/mL and a total volume of 15 mL.
Test sample substrates were prepared containing each test material (1,4-CHDM, etc) or combination of test materials at the concentrations shown in Tables 5 and 6.

Pseudomonas aeruginosa = test: Microbial challenge testing in BPW; assay type: cell-based; settings: for Grade code, P. aeruginosa, 3 Days / Grade code, P. aeruginosa, 13 Days / Grade code, P. aeruginosa, 30 Days: BPW, w/v % in label, average of replicates
Protocol: as §1, §2, §3, §4, §5, §6, §7
Test sample substrates were prepared containing each test material (1,4-CHDM, etc) or combination of test materials at the concentrations shown in Tables 5 and 6. Sample substrates were prepared in triplicate, except those substrates containing PE or CG which were prepared in duplicate. Substrates were prepared by adding BPW containing 1% (w/v) dextrose to each 20-mL glass tube, then adding the test material in the amount appropriate to achieve the desired weight/volume percent (g/100 mL) and to obtain a total volume of BPW with dextrose and test material of 13.5 mL. Then 1.5 mL challenge material was added to produce a final concentration at time zero of 10^5 to 10^6 cfu/mL of the respective organism and a total test sample substrate volume of 15 mL.
After mixing, all challenged substrates were incubated at 35° C.±2° C. for 14 days and then at ambient room temperature.

[1] = 3 days incubation, listed as 0.5% AB
[2] = 3 days incubation, listed as 1.25% AB
[3] = 3 days incubation, listed as 2.5% AB
[4] = 13 days incubation, listed as 0.5% AB
[5] = 13 days incubation, listed as 1.25% AB
[6] = 13 days incubation, listed as 2.5% AB
[7] = 30 days incubation, listed as 0.5% AB
[8] = 30 days incubation, listed as 1.25% AB
[9] = 30 days incubation, listed as 2.5% AB

## OCC1CCC(CO)CC1 (stereo not drawn) [1,4-CHDM, 1,4-cyclohexanedimethanol]
Aspergillus niger; 0.5%, 3 days incubation
  Grade code A. niger: 4
Aspergillus niger; 0.5%, 13 days incubation
  Grade code A. niger: 4
Aspergillus niger; 0.5%, 30 days incubation
  Grade code A. niger: 4
Aspergillus niger; 1.25%, 3 days incubation
  Grade code A. niger: 4
Aspergillus niger; 1.25%, 13 days incubation
  Grade code A. niger: 4
Aspergillus niger; 1.25%, 30 days incubation
  Grade code A. niger: 4
Aspergillus niger; 2.5%, 3 days incubation
  Grade code A. niger: 2 (Countable (11 to 100 colonies))
Aspergillus niger; 2.5%, 13 days incubation
  Grade code A. niger: 1 (Countable (1 to 10 colonies))
Aspergillus niger; 2.5%, 30 days incubation
  Grade code A. niger: 2.3
Aspergillus niger; [1]
  Grade code, A. niger, 3 Day: 4
Aspergillus niger; [2]
  Grade code, A. niger, 3 Day: 4
Aspergillus niger; [3]
  Grade code, A. niger, 3 Day: 2 (Countable (11 to 100 colonies))
Aspergillus niger; [4]
  Grade code, A. niger, 13 Day: 4
Aspergillus niger; [5]
  Grade code, A. niger, 13 Day: 4
Aspergillus niger; [6]
  Grade code, A. niger, 13 Day: 1 (Countable (1 to 10 colonies))
Aspergillus niger; [7]
  Grade code, A. niger, 30 Day: 4
Aspergillus niger; [8]
  Grade code, A. niger, 30 Day: 4
Aspergillus niger; [9]
  Grade code, A. niger, 30 Day: 2.3
Pseudomonas aeruginosa; 0.5%, 3 days incubation
  Grade code P. aeruginosa: 4 (1001 to 10,000 colonies (thus 10,000 cfu/mL to 100,000 cfu/mL))
Pseudomonas aeruginosa; 0.5%, 13 days incubation
  Grade code P. aeruginosa: 4 (1001 to 10,000 colonies (thus 10,000 cfu/mL to 100,000 cfu/mL))
Pseudomonas aeruginosa; 0.5%, 30 days incubation
  Grade code P. aeruginosa: 4 (1001 to 10,000 colonies (thus 10,000 cfu/mL to 100,000 cfu/mL))
Pseudomonas aeruginosa; 1.25%, 3 days incubation
  Grade code P. aeruginosa: 4 (1001 to 10,000 colonies (thus 10,000 cfu/mL to 100,000 cfu/mL))
Pseudomonas aeruginosa; 1.25%, 13 days incubation
  Grade code P. aeruginosa: 3 (101 to 1000 colonies (thus 1000 to 10,000 cfu/mL))
Pseudomonas aeruginosa; 1.25%, 30 days incubation
  Grade code P. aeruginosa: 4 (1001 to 10,000 colonies (thus 10,000 cfu/mL to 100,000 cfu/mL))
Pseudomonas aeruginosa; 2.5%, 3 days incubation
  Grade code P. aeruginosa: 3 (101 to 1000 colonies (thus 1000 to 10,000 cfu/mL))
Pseudomonas aeruginosa; 2.5%, 13 days incubation
  Grade code P. aeruginosa: 2 (52 to 100 colonies counted (thus 520 to 1000 cfu/mL))
Pseudomonas aeruginosa; 2.5%, 30 days incubation
  Grade code P. aeruginosa: 0 (No growth detected or <1 colony (thus <10 cfu/mL))
Pseudomonas aeruginosa; [1]
  Grade code, P. aeruginosa, 3 Days: 4 (1001 to 10,000 colonies (thus 10,000 cfu/mL to 100,000 cfu/mL))
Pseudomonas aeruginosa; [2]
  Grade code, P. aeruginosa, 3 Days: 4 (1001 to 10,000 colonies (thus 10,000 cfu/mL to 100,000 cfu/mL))
Pseudomonas aeruginosa; [3]
  Grade code, P. aeruginosa, 3 Days: 3 (101 to 1000 colonies (thus 1000 to 10,000 cfu/mL))
Pseudomonas aeruginosa; [4]
  Grade code, P. aeruginosa, 13 Days: 4 (1001 to 10,000 colonies (thus 10,000 cfu/mL to 100,000 cfu/mL))
Pseudomonas aeruginosa; [5]
  Grade code, P. aeruginosa, 13 Days: 3 (101 to 1000 colonies (thus 1000 to 10,000 cfu/mL))
Pseudomonas aeruginosa; [6]
  Grade code, P. aeruginosa, 13 Days: 2 (52 to 100 colonies counted (thus 520 to 1000 cfu/mL))
Pseudomonas aeruginosa; [7]
  Grade code, P. aeruginosa, 30 Days: 4 (1001 to 10,000 colonies (thus 10,000 cfu/mL to 100,000 cfu/mL))
Pseudomonas aeruginosa; [8]
  Grade code, P. aeruginosa, 30 Days: 4 (1001 to 10,000 colonies (thus 10,000 cfu/mL to 100,000 cfu/mL))
Pseudomonas aeruginosa; [9]
  Grade code, P. aeruginosa, 30 Days: 0 (No growth detected or <1 colony (thus <10 cfu/mL))
